Assay results as given in publication PMC4838876, “Multivalent display of minimal Clostridium difficile glycan epitopes mimics antigenic properties of larger glycans” (Nature Communications, 2016).

Legend:
mAb 2C5 (anti-PS-I IgG1) = experiment: Kinetic SPR of glycans binding to captured mAb 2C5; set-up: species or system mouse; details: for off-rate: mAb 2C5; for Kd: mAb 2C5, PBS, 25 °C
Method: (§1) Kinetic SPR experiments were performed to determine the binding strengths of the mAbs to PS-I glycans expressed as dissociation constants (KD)[8] (Fig. 5a). […] Overall, the SPR measurements (summarized in Table 1) confirmed results obtained by glycan microarray presented above.
(§2) Figure 5 KD values of anti-PS-I mAbs binding to 1 and 3 inferred by SPR. (a) mAbs were captured with an anti-mouse IgG antibody immobilized on the SPR sensor surface. Glycan antigens were passed over the surface to monitor changes in the response unit signals. (b,c) Representative sensorgrams showing reference-subtracted binding signals to 1 (b) and 3 (c). KD values were calculated by fitting the curves to a 1:1 Langmuir binding model (black overlaid curves) or with a steady-state affinity model (response units versus concentration plots). Indicated KD values are mean±s.e.m. of n=3 or mean with minimum and maximum values in parentheses of n=2 independent experiments. See Supplementary Figs 3–5 for details.
(§3) Binding analyses were carried out on a Biacore T100 instrument (GE Healthcare). CM5 sensor chips were functionalized with about 10,000 RUs of α-mouse IgG capture antibody, using the Mouse Antibody Capture Kit and the Amine Coupling Kit (GE Healthcare) according to the manufacturer's recommendations. A blank-immobilized flow cell was used as reference, to compensate for nonspecific binding of antibodies or oligosaccharides to the sensor chip surface. Kinetic measurements were performed with the Biacore T100 Control software using the ‘Kinetics' function. PBS was used as running buffer and all measurements were performed at 25 °C and a flow rate of 30 μl min^−1. About 500 RUs of mAbs were captured at a concentration of 50 μg ml^−1 diluted in PBS and oligosaccharides or OAAs (in PBS) at the indicated concentrations were passed through, using the standard parameters for association and dissociation times unless mentioned otherwise. Flow cells were regenerated with 10 mM glycine-HCl pH 1.7 for 30 s. Kinetic evaluation of binding responses was performed with the Biacore T100 Evaluation software, using reference-subtracted sensorgrams. Two different kinetic models, a 1:1 binding Langmuir model and a two-state reaction model, which assumes a conformational change in the antibody–analyte complex, were used to fit the data. The fitting quality was evaluated by investigating respective residual plots, χ^2 and s.e. values for on- and off-rates. Both models yielded similar good fittings. We chose the 1:1 binding model over the two-state reaction model to calculate on- and off-rates, as well as KD values, as this model makes fewer assumptions. When on-rates and/or off-rates were outside of the measurable ranges of the instrument, the steady-state affinity model was used instead to determine KD values. The 1:1 binding model was generally preferred over the steady-state affinity model in cases where both could be applied. In these cases, the two models yielded roughly similar KD values. Thermodynamic parameters were inferred by using the ‘Thermodynamics' function of the Biacore T100 Control software with the same experimental set-up described above. Temperatures from 13 to 37 °C were chosen. Values for ΔG, ΔH and ΔS were inferred by van't Hoff analysis. IM analysis was carried out by Ridgeview Diagnostics AB, Uppsala, Sweden.
Supplementary Figure 3 | KD values of mAb 2C5 to PS‐I oligosaccharide antigens inferred by SPR. […]

[1] = target: mAb 10A1 (anti-PS-I IgG1); experiment: Kinetic SPR of glycans binding to captured mAb 10A1; set-up: species or system mouse; details: mAb 10A1, PBS, 25 °C, mean (min;max) n=2
Method: as §1, §2
Binding analyses were carried out on a Biacore T100 instrument (GE Healthcare). […] The fitting quality was evaluated by investigating respective residual plots, χ^2 and s.e. values for on- and off-rates. […]

[2] = target: mAb 10D6 (anti-PS-I IgG1); experiment: Kinetic SPR of glycans binding to captured mAb 10D6; set-up: species or system mouse; details: mAb 10D6, PBS, 25 °C, mean±s.e.m. n=3 or mean (min;max) n=2
Method: as §1
Binding analyses were carried out on a Biacore T100 instrument (GE Healthcare). CM5 sensor chips were functionalized with about 10,000 RUs of α-mouse IgG capture antibody, using the Mouse Antibody Capture Kit and the Amine Coupling Kit (GE Healthcare) according to the manufacturer's recommendations. A blank-immobilized flow cell was used as reference, to compensate for nonspecific binding of antibodies or oligosaccharides to the sensor chip surface. Kinetic measurements were performed with the Biacore T100 Control software using the ‘Kinetics' function. PBS was used as running buffer and all measurements were performed at 25 °C and a flow rate of 30 μl min^−1. About 500 RUs of mAbs were captured at a concentration of 50 μg ml^−1 diluted in PBS and oligosaccharides or OAAs (in PBS) at the indicated concentrations were passed through, using the standard parameters for association and dissociation times unless mentioned otherwise. […] The fitting quality was evaluated by investigating respective residual plots, χ^2 and s.e. values for on- and off-rates. […]
All sensorgrams were recorded on a Biacore T100 instrument (GE […]

[3] = test system: anti-PS-I mAbs 2C5, 10A1 and 10D6; experiment: Kinetic SPR, summary over the three anti-PS-I mAbs; type: binding, mouse; details: for Kd: SPR, range over mAbs 2C5, 10A1, 10D6
Method: as §1
as §3, with “The 1:1 binding model was generally preferred over the steady-state affinity model in cases where both could be applied. In these cases, the two models yielded roughly similar KD values. Thermodynamic parameters were inferred by using the ‘Thermodynamics' function of the Biacore T100 Control software with the same experimental set-up described above. Temperatures from 13 to 37 °C were chosen. Values for ΔG, ΔH and ΔS were inferred by van't Hoff analysis. IM analysis was carried out by Ridgeview Diagnostics AB, Uppsala, Sweden.” left out

[4] = mean±s.e.m. n=3 or mean (min;max) n=2

Structure (SMILES) | off-rate (mAb 2C5 (anti-PS-I IgG1)) | Kd (mAb 2C5 (anti-PS-I IgG1); [4]) | off-rate koff (mAb 2C5 (anti-PS-I IgG1); mAb 2C5, dissociation model fit, mean±s.e.m. n=3 or mean (min;max) n=2) | Kd [1] | Kd [2] | fold lower KD values than minimal glycan epitope 3 ([3]; KD of 1 compared with 3) | Kd [3]
C[C@@H]1O[C@@H](O[C@@H]2[C@@H](O)[C@H](O[C@H]3[C@H](O[C@@H]4O[C@@H](C)[C@H](O)[C@@H](O)[C@H]4O)[C@@H](O)[C@@H](O[C@H]4[C@@H](OCCCCCN)O[C@H](CO)[C@@H](O)[C@@H]4O)O[C@@H]3CO)O[C@H](CO)[C@H]2O)[C@H](O)[C@H](O)[C@H]1O [Compound 1] | 0.0019 s⁻¹ | 0.163 ± 0.023 µM | 1.6±0.1 × 10^-3 s^-1 | 0.245 µM | 0.169 µM | about 100 fold | 0.163 to 0.245 µM
C[C@@H]1O[C@@H](O[C@@H]2[C@@H](O)[C@H](OCCCCCN)O[C@H](CO)[C@H]2O)[C@H](O)[C@H](O)[C@H]1O [Compound 3, Rha-(1→3)-Glc] | 0.0016 s⁻¹ | 18 µM |  | 5.9 µM | 37.5 ± 0.4 µM |  | 5.9 to 37.5 µM
